# Publication PMC9926234, “Iterative computational design and crystallographic screening identifies potent inhibitors targeting the Nsp3 macrodomain of SARS-CoV-2” (Proceedings of the National Academy of Sciences of the …, 2023)
# “And” between values parts separate entries of the source, which are not always exact repeats. Identical values can stand only once.
# Target: T1, SARS-CoV-2 NSP3 Mac1 (Severe acute respiratory syndrome coronavirus 2, UniProt P0DTD1)
# Assay type: binding
# Conditions: PanDDA 1-BDC (background density correction) of the event; crystal soak 100 mM; PanDDA run dmso_34
row,Structure (SMILES),1-BDC
1,N#Cc1ccc(OCCn2cnc3c(N)ncnc32)cc1 [ZINC000043461211],0.31

# Same assay, conditions: PanDDA 1-BDC value of the event; crystal soak, compound concentration 100 mM; per dataset
row,Structure (SMILES),1-BDC
1,Cc1nnc2n1CC(C(=O)O)N(C(=O)c1ccc(NC(=O)NC3CC3)cc1)C2 (stereo not drawn) [8539_0037],0.4
2,O=C(Nc1ccc(C(=O)N2CC(C(=O)O)Cc3ccccc32)cc1)NC1CC1 (stereo not drawn) [8539_0038],0.06
3,Cn1nc(O)c2c1CN(C(=O)c1cc(O)cc(=O)o1)CC2 [FRESH00002410346],0.07
4,CNS(=O)(=O)c1cc(C(=O)N2CCc3nc(N)ncc3C2)co1 [FRESH00014649046],0.07
5,Nc1ncnc(N2CCCC(CCC(=O)O)C2)c1Cl (stereo not drawn) [REAL250003296134],0.09
6,Cc1ccc(-c2nc(Cn3cnc4c(N)nc(N)nc43)cs2)o1 [Z4718398580],0.28

# Same assay, conditions: PanDDA event map, 1-BDC of the hit dataset; crystal soak, compound concentration 100 mM
row,Structure (SMILES),1-BDC
1,CCc1c[nH]c2ncc(-c3c(C(=O)O)c(C)nn3C)cc12 [REAL250003958539],0.2
2,CC1CC(C(=O)O)N1C(=O)c1cc(O)nc2ccc(F)cc12.O=C(O)C(F)(F)F (stereo not drawn) [REAL300007260658],0.18

# Same assay, conditions: PanDDA event map, 1-BDC of the hit dataset; crystal soak, compound concentration 100 mM; listed as F2804
row,Structure (SMILES),1-BDC
1,CC1(C)CCC(C(=O)O)CN1C(=O)c1ncnc2[nH]ccc12 (stereo not drawn) [FRESH00012962804],0.32 and 0.28

# Same assay, conditions: PanDDA event map, 1-BDC of the hit dataset; crystal soak, compound concentration 100 mM; listed as Z8580
row,Structure (SMILES),1-BDC
1,Cc1ccc(-c2nc(Cn3cnc4c(N)nc(N)nc43)cs2)o1 [Z4718398580],0.35 and 0.45

# Same assay, conditions: PanDDA event map, 1 minus background density correction; crystal soaking of Mac1
Structure (SMILES),1-BDC,1-BDC (PanDDA)
Cc1nnc2n1CC(C(=O)O)N(C(=O)c1ccc(NC(=O)NC3CC3)cc1)C2 (stereo not drawn) [8539_0037],0.4,
O=C(Nc1ccc(C(=O)N2CC(C(=O)O)Cc3ccccc32)cc1)NC1CC1 (stereo not drawn) [8539_0038],0.06,
Cn1nc(O)c2c1CN(C(=O)c1cc(O)cc(=O)o1)CC2 [FRESH00002410346],0.07,
CC1(C)CCC(C(=O)O)CN1C(=O)c1ncnc2[nH]ccc12 (stereo not drawn) [FRESH00012962804],0.22,
CNS(=O)(=O)c1cc(C(=O)N2CCc3nc(N)ncc3C2)co1 [FRESH00014649046],,0.06
Nc1ncnc(N2CCCC(CCC(=O)O)C2)c1Cl (stereo not drawn) [REAL250003296134],0.09,
CCc1c[nH]c2ncc(-c3c(C(=O)O)c(C)nn3C)cc12 [REAL250003958539],0.14,
CC1CC(C(=O)O)N1C(=O)c1cc(O)nc2ccc(F)cc12.O=C(O)C(F)(F)F (stereo not drawn) [REAL300007260658],0.11,
Cc1ccc(-c2nc(Cn3cnc4c(N)nc(N)nc43)cs2)o1 [Z4718398580],0.45,
N#Cc1ccc(OCCn2cnc3c(N)ncnc32)cc1 [ZINC000043461211],0.31,

# Same assay, conditions: crystal soak, compound concentration 100 mM; PanDDA run dmso_34; series docking_lead-like_1
row,Structure (SMILES),PanDDA hit?
1,N#Cc1ccc(OCCn2cnc3c(N)ncnc32)cc1 [ZINC000043461211],TRUE

# Same assay, conditions: crystal soak, compound concentration 100 mM; per dataset
row,Structure (SMILES),PanDDA hit?
1,Cc1nnc2n1CC(C(=O)O)N(C(=O)c1ccc(NC(=O)NC3CC3)cc1)C2 (stereo not drawn) [8539_0037],TRUE
2,O=C(Nc1ccc(C(=O)N2CC(C(=O)O)Cc3ccccc32)cc1)NC1CC1 (stereo not drawn) [8539_0038],TRUE
3,Cn1nc(O)c2c1CN(C(=O)c1cc(O)cc(=O)o1)CC2 [FRESH00002410346],TRUE
4,CNS(=O)(=O)c1cc(C(=O)N2CCc3nc(N)ncc3C2)co1 [FRESH00014649046],TRUE
5,Nc1ncnc(N2CCCC(CCC(=O)O)C2)c1Cl (stereo not drawn) [REAL250003296134],TRUE
6,Cc1ccc(-c2nc(Cn3cnc4c(N)nc(N)nc43)cs2)o1 [Z4718398580],TRUE

# Same assay, conditions: ligand modeled from this dataset; compound concentration 100 mM
row,Structure (SMILES),Modeled?
1,CNS(=O)(=O)c1cc(C(=O)N2CCc3nc(N)ncc3C2)co1 [FRESH00014649046],TRUE

# Same assay, conditions: ligand modeled from this dataset; crystal soak, compound concentration 100 mM
row,Structure (SMILES),Modeled?
1,Cc1ccc(-c2nc(Cn3cnc4c(N)nc(N)nc43)cs2)o1 [Z4718398580],TRUE

# Same assay, conditions: ligand modeled in the crystal structure; crystal soak 100 mM; PanDDA run dmso_34
row,Structure (SMILES),Modeled?
1,N#Cc1ccc(OCCn2cnc3c(N)ncnc32)cc1 [ZINC000043461211],TRUE

# Same assay, conditions: ligand modeled in the crystal structure; crystal soak, compound concentration 100 mM; per dataset
row,Structure (SMILES),Modeled?
1,Cc1nnc2n1CC(C(=O)O)N(C(=O)c1ccc(NC(=O)NC3CC3)cc1)C2 (stereo not drawn) [8539_0037],TRUE
2,O=C(Nc1ccc(C(=O)N2CC(C(=O)O)Cc3ccccc32)cc1)NC1CC1 (stereo not drawn) [8539_0038],TRUE
3,Cn1nc(O)c2c1CN(C(=O)c1cc(O)cc(=O)o1)CC2 [FRESH00002410346],TRUE
4,Nc1ncnc(N2CCCC(CCC(=O)O)C2)c1Cl (stereo not drawn) [REAL250003296134],TRUE

# Same assay, conditions: ligand occupancy after refinement (phenix.refine); crystal soaking of Mac1
row,Structure (SMILES),Refined occupancy
1,Cc1nnc2n1CC(C(=O)O)N(C(=O)c1ccc(NC(=O)NC3CC3)cc1)C2 (stereo not drawn) [8539_0037],80
2,O=C(Nc1ccc(C(=O)N2CC(C(=O)O)Cc3ccccc32)cc1)NC1CC1 (stereo not drawn) [8539_0038],12
3,Cn1nc(O)c2c1CN(C(=O)c1cc(O)cc(=O)o1)CC2 [FRESH00002410346],14
4,CC1(C)CCC(C(=O)O)CN1C(=O)c1ncnc2[nH]ccc12 (stereo not drawn) [FRESH00012962804],44
5,CNS(=O)(=O)c1cc(C(=O)N2CCc3nc(N)ncc3C2)co1 [FRESH00014649046],12
6,Nc1ncnc(N2CCCC(CCC(=O)O)C2)c1Cl (stereo not drawn) [REAL250003296134],18
7,CCc1c[nH]c2ncc(-c3c(C(=O)O)c(C)nn3C)cc12 [REAL250003958539],28
8,CC1CC(C(=O)O)N1C(=O)c1cc(O)nc2ccc(F)cc12.O=C(O)C(F)(F)F (stereo not drawn) [REAL300007260658],22
9,Cc1ccc(-c2nc(Cn3cnc4c(N)nc(N)nc43)cs2)o1 [Z4718398580],60
10,N#Cc1ccc(OCCn2cnc3c(N)ncnc32)cc1 [ZINC000043461211],62

# Same assay, conditions: overall hit flag: binding in crystallographic soaking or the HTRF-based binding assay
row,Structure (SMILES),HIT*
1,Cc1ccc(-c2nc(Cn3cnc4c(N)nc(N)nc43)cs2)o1 [Z4718398580],Y
2,N#Cc1ccc(OCCn2cnc3c(N)ncnc32)cc1 [ZINC000043461211],Y

# Same assay, conditions: true hit = binding in crystallographic soaking or the HTRF-based binding assay
row,Structure (SMILES),HIT*
1,Cc1nnc2n1CC(C(=O)O)N(C(=O)c1ccc(NC(=O)NC3CC3)cc1)C2 (stereo not drawn) [8539_0037],Y
2,O=C(Nc1ccc(C(=O)N2CC(C(=O)O)Cc3ccccc32)cc1)NC1CC1 (stereo not drawn) [8539_0038],Y
3,Cn1nc(O)c2c1CN(C(=O)c1cc(O)cc(=O)o1)CC2 [FRESH00002410346],Y
4,CC1(C)CCC(C(=O)O)CN1C(=O)c1ncnc2[nH]ccc12 (stereo not drawn) [FRESH00012962804],Y
5,CNS(=O)(=O)c1cc(C(=O)N2CCc3nc(N)ncc3C2)co1 [FRESH00014649046],Y
6,Nc1ncnc(N2CCCC(CCC(=O)O)C2)c1Cl (stereo not drawn) [REAL250003296134],Y
7,CCc1c[nH]c2ncc(-c3c(C(=O)O)c(C)nn3C)cc12 [REAL250003958539],Y
8,CC1CC(C(=O)O)N1C(=O)c1cc(O)nc2ccc(F)cc12.O=C(O)C(F)(F)F (stereo not drawn) [REAL300007260658],Y

# Target: T1, SARS-CoV-2 NSP3 Mac1
# Assay type: binding
# Set-up: contains a conserved macrodomain enzyme (Mac1)
# Conditions: DSF dose responsiveness, 1 µM nsp3 mac1; adj p given
# Experimental: DSF and associated compound handling was performed as described ([12]), with 5 µM dye “Fluorescent Yellow” (Jacquard iDye Cat #JID1405) used in place of SYPRO Orange. Compounds were tested in triplicate, at seven concentrations in two-fold serial dilutions, at a top concentration of either 1,000 or 100 μM. To minimize experimental noise arising from plate location-based effects on Tma, all concentrations and replicates for each compound were tested within a single region of the microtiter plates, including a DMSO-only control from which ΔTmas were calculated for that compound. […] For each compound, to determine statistical significance of the dose responsive thermal shift, the Spearman’s coefficient was calculated between compound concentration and ΔTma.
row,Structure (SMILES),Spearman est (compound concentration vs apparent Tm)
1,Cc1nnc2n1CC(C(=O)O)N(C(=O)c1ccc(NC(=O)NC3CC3)cc1)C2 (stereo not drawn) [8539_0037],0.16
2,O=C(Nc1ccc(C(=O)N2CC(C(=O)O)Cc3ccccc32)cc1)NC1CC1 (stereo not drawn) [8539_0038],0.19
3,Cn1nc(O)c2c1CN(C(=O)c1cc(O)cc(=O)o1)CC2 [FRESH00002410346],−0.34
4,CC1(C)CCC(C(=O)O)CN1C(=O)c1ncnc2[nH]ccc12 (stereo not drawn) [FRESH00012962804],0.54
5,CNS(=O)(=O)c1cc(C(=O)N2CCc3nc(N)ncc3C2)co1 [FRESH00014649046],0.3
6,Nc1ncnc(N2CCCC(CCC(=O)O)C2)c1Cl (stereo not drawn) [REAL250003296134],0.65
7,CCc1c[nH]c2ncc(-c3c(C(=O)O)c(C)nn3C)cc12 [REAL250003958539],0.15
8,CC1CC(C(=O)O)N1C(=O)c1cc(O)nc2ccc(F)cc12.O=C(O)C(F)(F)F (stereo not drawn) [REAL300007260658],−0.11
9,Cc1ccc(-c2nc(Cn3cnc4c(N)nc(N)nc43)cs2)o1 [Z4718398580],0.74
10,N#Cc1ccc(OCCn2cnc3c(N)ncnc32)cc1 [ZINC000043461211],0.26

# Same assay, conditions: maximal thermal upshift
row,Structure (SMILES),DSF max dTma
1,Cc1nnc2n1CC(C(=O)O)N(C(=O)c1ccc(NC(=O)NC3CC3)cc1)C2 (stereo not drawn) [8539_0037],2.36 ˚C
2,O=C(Nc1ccc(C(=O)N2CC(C(=O)O)Cc3ccccc32)cc1)NC1CC1 (stereo not drawn) [8539_0038],0.98 ˚C
3,Cn1nc(O)c2c1CN(C(=O)c1cc(O)cc(=O)o1)CC2 [FRESH00002410346],0.09 ˚C
4,CC1(C)CCC(C(=O)O)CN1C(=O)c1ncnc2[nH]ccc12 (stereo not drawn) [FRESH00012962804],0.62 ˚C
5,CNS(=O)(=O)c1cc(C(=O)N2CCc3nc(N)ncc3C2)co1 [FRESH00014649046],0.29 ˚C
6,Nc1ncnc(N2CCCC(CCC(=O)O)C2)c1Cl (stereo not drawn) [REAL250003296134],0.34 ˚C
7,CCc1c[nH]c2ncc(-c3c(C(=O)O)c(C)nn3C)cc12 [REAL250003958539],0.35 ˚C
8,CC1CC(C(=O)O)N1C(=O)c1cc(O)nc2ccc(F)cc12.O=C(O)C(F)(F)F (stereo not drawn) [REAL300007260658],0.37 ˚C

# Same assay, conditions: maximal thermal upshift vs DMSO control
row,Structure (SMILES),DSF max dTma [°C]
1,Cc1ccc(-c2nc(Cn3cnc4c(N)nc(N)nc43)cs2)o1 [Z4718398580],0.71
2,N#Cc1ccc(OCCn2cnc3c(N)ncnc32)cc1 [ZINC000043461211],0.45
